How the values were obtained:
A2M (α2-macroglobulin) = target: T1, A2M (α2-macroglobulin) (Homo sapiens, UniProt P01023, N1088H); assay: LC-MS/MS PRM of the pepsin-digested thiol ester peptide conjugate; type: biochemical; conditions: covalent ester at thiol ester Gln-975; recombinant A2M activated by chymotrypsin; 200 mM glycerol, HBS pH 7.4, 37 °C
T1 construct: WT purified from plasma; N1088H recombinant from HEK293 cells (gene based on mRNA M11311), native form enriched by LRP1 depletion; tetramer; cleaved by chymotrypsin in the assay
T1 sequence (P01023 24-1474 N1088H): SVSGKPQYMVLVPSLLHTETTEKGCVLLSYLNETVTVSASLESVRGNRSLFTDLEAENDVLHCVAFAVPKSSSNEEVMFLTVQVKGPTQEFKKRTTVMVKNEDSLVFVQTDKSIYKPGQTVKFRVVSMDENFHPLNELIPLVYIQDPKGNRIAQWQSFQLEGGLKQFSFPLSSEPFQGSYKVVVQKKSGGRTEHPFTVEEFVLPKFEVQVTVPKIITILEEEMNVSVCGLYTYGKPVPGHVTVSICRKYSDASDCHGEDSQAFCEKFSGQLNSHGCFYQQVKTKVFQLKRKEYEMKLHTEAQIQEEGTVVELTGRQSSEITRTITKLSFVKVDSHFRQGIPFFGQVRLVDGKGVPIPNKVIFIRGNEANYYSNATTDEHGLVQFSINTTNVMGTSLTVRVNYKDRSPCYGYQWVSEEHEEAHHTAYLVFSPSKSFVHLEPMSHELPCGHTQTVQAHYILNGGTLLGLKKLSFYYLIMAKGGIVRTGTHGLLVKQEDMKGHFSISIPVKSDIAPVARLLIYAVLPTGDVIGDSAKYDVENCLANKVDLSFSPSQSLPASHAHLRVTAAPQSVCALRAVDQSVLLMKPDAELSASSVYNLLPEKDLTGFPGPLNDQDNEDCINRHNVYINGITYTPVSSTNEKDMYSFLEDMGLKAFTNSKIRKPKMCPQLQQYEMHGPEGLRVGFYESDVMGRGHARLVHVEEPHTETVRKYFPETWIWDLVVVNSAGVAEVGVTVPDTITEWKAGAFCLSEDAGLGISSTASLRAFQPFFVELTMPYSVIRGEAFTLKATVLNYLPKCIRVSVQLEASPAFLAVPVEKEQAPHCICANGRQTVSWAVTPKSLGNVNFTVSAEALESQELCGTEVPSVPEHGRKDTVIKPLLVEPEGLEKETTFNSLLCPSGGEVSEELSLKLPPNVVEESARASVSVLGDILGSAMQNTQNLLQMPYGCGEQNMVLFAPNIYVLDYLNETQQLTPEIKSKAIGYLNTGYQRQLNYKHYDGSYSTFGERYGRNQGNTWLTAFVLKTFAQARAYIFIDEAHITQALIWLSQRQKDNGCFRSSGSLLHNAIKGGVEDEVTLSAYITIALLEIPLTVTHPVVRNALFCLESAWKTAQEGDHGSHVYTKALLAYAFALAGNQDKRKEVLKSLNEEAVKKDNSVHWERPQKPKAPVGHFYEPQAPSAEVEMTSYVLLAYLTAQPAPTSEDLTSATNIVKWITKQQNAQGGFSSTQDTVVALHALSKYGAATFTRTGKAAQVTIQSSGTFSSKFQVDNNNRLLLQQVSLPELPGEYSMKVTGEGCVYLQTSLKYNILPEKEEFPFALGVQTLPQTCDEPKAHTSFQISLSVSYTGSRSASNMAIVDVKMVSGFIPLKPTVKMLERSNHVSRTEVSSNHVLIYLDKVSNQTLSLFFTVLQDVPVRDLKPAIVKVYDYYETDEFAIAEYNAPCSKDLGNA

[1] = target: T2, A2ML1 (α2-macroglobulin-like protein 1) (Homo sapiens, UniProt A8K2U0); assay: as above; type: biochemical; conditions: covalent ester at thiol ester Gln-973; A2ML1 activated by chymotrypsin; 200 mM glycerol, HBS pH 7.4, 37 °C
T2 construct: full-length recombinant, secreted by HEK293 Freestyle cells, no tag mentioned, purified by Zn IMAC, anion exchange and size exclusion; monomer; bait region cleaved by chymotrypsin in the assay
T2 sequence (A8K2U0 18-1454): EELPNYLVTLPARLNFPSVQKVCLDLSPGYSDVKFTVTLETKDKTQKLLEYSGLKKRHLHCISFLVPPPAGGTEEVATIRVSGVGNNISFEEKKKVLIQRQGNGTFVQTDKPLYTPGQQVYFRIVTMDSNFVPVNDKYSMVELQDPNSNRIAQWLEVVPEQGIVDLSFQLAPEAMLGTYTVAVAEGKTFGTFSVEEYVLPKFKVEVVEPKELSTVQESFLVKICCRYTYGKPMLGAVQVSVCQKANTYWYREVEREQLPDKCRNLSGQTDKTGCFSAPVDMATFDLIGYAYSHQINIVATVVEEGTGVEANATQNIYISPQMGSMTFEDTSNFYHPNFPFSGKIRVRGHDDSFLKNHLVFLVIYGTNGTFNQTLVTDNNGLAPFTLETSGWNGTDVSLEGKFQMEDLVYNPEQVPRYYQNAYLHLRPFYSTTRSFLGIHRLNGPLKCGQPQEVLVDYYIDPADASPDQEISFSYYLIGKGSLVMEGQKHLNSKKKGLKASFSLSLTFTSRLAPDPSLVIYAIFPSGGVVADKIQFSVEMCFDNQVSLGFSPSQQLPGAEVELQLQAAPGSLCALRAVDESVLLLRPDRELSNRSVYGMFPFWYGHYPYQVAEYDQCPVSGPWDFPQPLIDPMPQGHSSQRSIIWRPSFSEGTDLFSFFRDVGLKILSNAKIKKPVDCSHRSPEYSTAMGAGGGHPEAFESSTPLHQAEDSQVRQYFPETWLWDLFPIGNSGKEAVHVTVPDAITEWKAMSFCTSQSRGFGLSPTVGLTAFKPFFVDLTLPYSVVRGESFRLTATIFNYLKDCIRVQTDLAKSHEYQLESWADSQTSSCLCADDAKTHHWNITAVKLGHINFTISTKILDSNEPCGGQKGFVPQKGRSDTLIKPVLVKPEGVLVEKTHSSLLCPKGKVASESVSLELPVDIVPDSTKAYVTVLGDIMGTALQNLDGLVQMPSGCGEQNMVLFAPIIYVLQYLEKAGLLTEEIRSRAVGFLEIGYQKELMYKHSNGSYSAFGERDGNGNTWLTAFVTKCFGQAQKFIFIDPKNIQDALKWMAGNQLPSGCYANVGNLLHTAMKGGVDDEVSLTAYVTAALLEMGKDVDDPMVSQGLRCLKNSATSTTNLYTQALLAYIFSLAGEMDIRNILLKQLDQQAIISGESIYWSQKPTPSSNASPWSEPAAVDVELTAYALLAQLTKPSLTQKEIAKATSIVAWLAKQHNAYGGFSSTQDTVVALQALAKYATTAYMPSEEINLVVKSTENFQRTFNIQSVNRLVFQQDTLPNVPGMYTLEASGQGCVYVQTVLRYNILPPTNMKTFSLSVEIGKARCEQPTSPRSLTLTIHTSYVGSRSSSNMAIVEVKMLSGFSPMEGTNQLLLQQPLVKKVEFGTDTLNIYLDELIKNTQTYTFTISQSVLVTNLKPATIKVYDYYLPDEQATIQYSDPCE

OCC(O)CO [glycerol]
LC-MS/MS PRM of the pepsin-digested thiol ester peptide conjugate (A2M (α2-macroglobulin)): reaction products between the thiol ester and glycerol was detected for A2M N1088H | LC-MS/MS PRM of the pepsin-digested thiol ester peptide conjugate [1]: the reaction product with the hydroxyl substrate glycerol was only detected for WT A2ML1

Reference: PMC7864068, “α2-Macroglobulin-like protein 1 can conjugate and inhibit proteases through their hydroxyl groups, because of an enhanced reactivity of its thiol ester” (The Journal of Biological Chemistry, 2021)
